In PMC8766756, “Insights on Cancer Cell Inhibition, Subcellular Activities, and Kinase Profile of Phenylacetamides Pending 1H-Imidazol-5-One Variants” (Frontiers in Pharmacology, 2022):
Several values for one entry are separate records, joined by “and”; a condition that tells them apart may be missing. Equal values may be shown once.

Tests used:
[1] = target: T1, CCK4/PTK7 (Q13308) (Homo sapiens, UniProt Q13308); assay: PamChip tyrosine kinase microarray; type: biochemical; settings: 0.1 µM, HL60 lysate
T1 construct: purchased PamGene (PamChip PTK array, Upstream Kinase Analysis)
T1 sequence (Q13308 31-1070): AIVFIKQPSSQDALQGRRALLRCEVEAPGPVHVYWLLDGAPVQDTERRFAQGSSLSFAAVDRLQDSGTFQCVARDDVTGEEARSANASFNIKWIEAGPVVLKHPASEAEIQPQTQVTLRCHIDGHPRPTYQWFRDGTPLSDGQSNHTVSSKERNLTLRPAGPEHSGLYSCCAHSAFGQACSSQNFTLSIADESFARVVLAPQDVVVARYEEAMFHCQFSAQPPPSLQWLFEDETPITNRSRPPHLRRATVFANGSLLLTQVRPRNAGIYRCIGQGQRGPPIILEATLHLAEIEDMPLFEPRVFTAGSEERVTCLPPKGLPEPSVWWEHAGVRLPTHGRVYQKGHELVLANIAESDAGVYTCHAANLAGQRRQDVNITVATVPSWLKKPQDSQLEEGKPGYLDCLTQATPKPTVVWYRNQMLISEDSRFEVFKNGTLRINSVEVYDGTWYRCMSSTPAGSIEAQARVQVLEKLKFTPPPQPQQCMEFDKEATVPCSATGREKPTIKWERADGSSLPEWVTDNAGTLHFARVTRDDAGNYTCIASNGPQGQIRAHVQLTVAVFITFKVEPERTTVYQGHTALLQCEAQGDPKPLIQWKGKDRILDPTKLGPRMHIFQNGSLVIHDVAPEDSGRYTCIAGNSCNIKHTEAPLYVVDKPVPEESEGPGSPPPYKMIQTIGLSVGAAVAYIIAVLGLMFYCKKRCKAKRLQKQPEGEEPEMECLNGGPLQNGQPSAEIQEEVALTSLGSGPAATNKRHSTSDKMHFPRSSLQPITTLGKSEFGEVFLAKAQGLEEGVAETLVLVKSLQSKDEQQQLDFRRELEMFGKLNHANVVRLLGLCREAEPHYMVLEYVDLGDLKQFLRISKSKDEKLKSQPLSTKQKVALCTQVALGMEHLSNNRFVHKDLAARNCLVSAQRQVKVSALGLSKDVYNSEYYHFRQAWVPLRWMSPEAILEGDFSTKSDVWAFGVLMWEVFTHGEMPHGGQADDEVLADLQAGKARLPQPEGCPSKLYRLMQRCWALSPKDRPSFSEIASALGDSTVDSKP
Summary of the method: (§1)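 HL60 (AML) cell lysate was spiked with compound at 0.001, 0.01, 0.1, 1, 10 and 50 µM, or 2% v/v DMSO as control, then profiled in technical replicates on a tyrosine kinase peptide array of 196 phosphosites. Kinase activity was inferred from peptide-set changes using an upstream kinase tool.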

[2] = target: T2, Fes (P07332) (Homo sapiens, UniProt P07332); assay: PamChip tyrosine kinase microarray; type: biochemical; settings: 0.1 µM, HL60 lysate
T2 construct: purchased PamGene (PamChip PTK array, Upstream Kinase Analysis)
Summary of the method: as §1

T2 sequence (P07332 whole entry): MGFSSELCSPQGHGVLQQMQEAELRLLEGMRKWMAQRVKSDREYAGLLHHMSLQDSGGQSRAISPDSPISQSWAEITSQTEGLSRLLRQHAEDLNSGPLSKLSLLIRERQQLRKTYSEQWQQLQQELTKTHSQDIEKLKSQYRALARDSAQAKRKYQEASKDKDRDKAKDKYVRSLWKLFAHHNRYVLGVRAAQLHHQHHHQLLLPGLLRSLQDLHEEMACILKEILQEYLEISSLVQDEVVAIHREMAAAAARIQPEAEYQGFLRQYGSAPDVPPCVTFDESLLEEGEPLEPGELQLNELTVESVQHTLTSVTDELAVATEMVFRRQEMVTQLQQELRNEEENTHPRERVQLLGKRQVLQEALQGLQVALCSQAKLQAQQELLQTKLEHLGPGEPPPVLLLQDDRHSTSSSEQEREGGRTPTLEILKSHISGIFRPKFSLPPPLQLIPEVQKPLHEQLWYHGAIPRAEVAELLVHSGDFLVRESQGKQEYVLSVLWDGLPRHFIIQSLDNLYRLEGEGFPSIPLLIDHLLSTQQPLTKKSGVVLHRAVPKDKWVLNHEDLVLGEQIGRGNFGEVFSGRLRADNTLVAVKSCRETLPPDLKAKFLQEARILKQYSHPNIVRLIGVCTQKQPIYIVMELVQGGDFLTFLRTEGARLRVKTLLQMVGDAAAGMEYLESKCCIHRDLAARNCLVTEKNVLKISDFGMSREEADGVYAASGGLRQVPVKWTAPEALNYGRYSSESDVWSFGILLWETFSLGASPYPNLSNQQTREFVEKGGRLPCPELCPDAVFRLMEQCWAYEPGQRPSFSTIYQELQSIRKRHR

## COc1ccc(/C=C2\N=C(C)N(c3ccc(CC(=O)NCc4ccccc4)cc3)C2=O)cc1 [Compound 4c, (Z)-N-Benzyl-2-(4-(4-(4-methoxybenzylidene)-2-methyl-5-oxo-4,5-dihydro-1H-imidazol-1-yl)phenyl)acetamide]
[1]
  Mean Significance Score: 1.989
  Mean Specificity Score: 0.5841
[1]; listed as KIM-161
  Mean Final score (Kinase score): 2.60 and 2.5986
[2]
  Mean Significance Score: 2.048
  Mean Specificity Score: 1.058
[2]; listed as KIM-161
  Mean Final score (Kinase score): 3.13 and 3.128
